Structures are written as SMILES. Several values for one entry are separate records, joined by “and”; a condition that tells them apart may be missing. Equal values may be shown once.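 Five compound concentrations were applied to cells in 96-well plates for 48 hours; endpoints were derived by simple linear interpolation of the resulting dose-response curve. GI50 is the concentration that inhibits growth by half. The concentration for full growth arrest is given as TGI.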 Bounds are passed on as bounds.

Some test systems named below: MCF7 breast; MOLT-4 leukemia; M14 melanoma; DU-145 prostate; NCI-H23 lung; CAKI-1 renal; ACHN renal; EKVX NSCLC; RXF 393 renal; RPMI-8226 leukemia.
Assay in all cases: NCI-60 cell line screen, 48 h

As to `Cc1cn2c(/C=C3\C(=O)N(C)c4ccc(O)cc43)c(C)nc2s1`, the GI50 in the test on MCF7 breast was 2.97 µM; with MOLT-4 leukemia, 4.71 µM; in the test on M14 melanoma, 3.43 µM; in the test on DU-145 prostate it was 21 µM; in the test with NCI-H23 lung, 11.9 µM; in the test with CAKI-1 renal, 5.13 µM. For the same compound, the GI50 with ACHN renal was 13.3 µM; in the test with EKVX NSCLC, 14.8 µM; with RXF 393 renal, 36 µM; in the test with RPMI-8226 leukemia, 5.98 µM. Further, the TGI in the test on MCF7 breast was 11.9 µM; in the test on MOLT-4 leukemia it was 34.7 µM; in the test on M14 melanoma, 25.1 µM; in the test with DU-145 prostate, more than 100 µM; in the test on NCI-H23 lung, more than 100 µM; in the test on CAKI-1 renal, 45.8 µM. Further, the TGI in the test with ACHN renal, in the test on EKVX NSCLC, with RXF 393 renal and with RPMI-8226 leukemia was more than 100 µM throughout.

Turning to `COc1ccc2c(c1)[C@@]13CCCC[C@H]1[C@@H](C2)N(C)CC3=O`, the TGI is 33.2 µM with MCF7 breast; more than 100 µM in the test with MOLT-4 leukemia; 31 µM in the test on M14 melanoma; 45.2 µM in the test on DU-145 prostate; 31.8 µM in the test on NCI-H23 lung; more than 100 µM in the test on CAKI-1 renal. The TGI in the test with ACHN renal amounted to 30.4 µM; with EKVX NSCLC, 43.4 µM; in the test with RXF 393 renal, 29.1 µM; with RPMI-8226 leukemia, 96.8 µM.

For the compound `COc1ccc2[nH]c3c4c(ccc3c2c1)C(=O)C=CC4=O`, the TGI in the test on MCF7 breast was 30.1 µM; in the test on MOLT-4 leukemia, 3.1 µM; with M14 melanoma it was 35.2 µM; with DU-145 prostate, more than 100 µM; in the test on NCI-H23 lung, 30.2 µM; with CAKI-1 renal, 14.4 µM. Besides, the TGI worked out at 15 µM in the test with ACHN renal, 29.9 µM in the test with EKVX NSCLC, 6.88 µM in the test with RXF 393 renal and 10.4 µM with RPMI-8226 leukemia.

For the compound `CCCCC1(CN2CCOCC2)S/C(=N/c2nc(CC(=O)OCC)cs2)NC1=O` (centres undefined), the GI50 in the test with MCF7 breast is 34.4 µM; in the test on MOLT-4 leukemia it was 27.7 µM; in the test on M14 melanoma it was 22.8 µM; in the test with DU-145 prostate, 27 µM; in the test with CAKI-1 renal, 29.9 µM; in the test with ACHN renal, 33.9 µM. The GI50 in the test with EKVX NSCLC was 38.9 µM; in the test with RXF 393 renal, 27.6 µM; in the test on RPMI-8226 leukemia it was 25.6 µM. Further, the TGI in the test with MCF7 breast is more than 100 µM; in the test with MOLT-4 leukemia, more than 100 µM; in the test on M14 melanoma, 67.3 µM; with DU-145 prostate, more than 100 µM; in the test with CAKI-1 renal, more than 100 µM; with ACHN renal it was more than 100 µM. Also, the TGI was more than 100 µM in the test with EKVX NSCLC, 86.1 µM in the test with RXF 393 renal and 80.6 µM in the test with RPMI-8226 leukemia.

Consider `O=C(Nc1ccc(Br)cc1)c1ccc(Cl)c(Cl)c1`, for which the GI50 in the test on MCF7 breast is 2.19 µM; in the test on MOLT-4 leukemia, 3.17 µM; in the test with M14 melanoma, 3.76 µM; with DU-145 prostate, 3.86 µM; with NCI-H23 lung it was 2.32 µM; in the test with CAKI-1 renal, 1.51 µM. Moreover, the GI50 in the test with ACHN renal was 2.83 µM; with EKVX NSCLC it was 1.99 µM; with RXF 393 renal it was more than 28 µM; with RPMI-8226 leukemia it was 3.15 µM. For the same compound, the TGI is more than 31.4 µM with MCF7 breast; more than 100 µM in the test with MOLT-4 leukemia; more than 100 µM in the test on M14 melanoma; more than 100 µM with DU-145 prostate; 7.32 µM with NCI-H23 lung; 4.58 µM in the test with CAKI-1 renal. The TGI in the test on ACHN renal is more than 28.6 µM; in the test with EKVX NSCLC it was more than 100 µM; in the test with RXF 393 renal, more than 100 µM; in the test with RPMI-8226 leukemia it was more than 100 µM.

`[Au+].[Au+].[Au+].[c-]1nccn1Cc1ccccc1.[c-]1nccn1Cc1ccccc1.[c-]1nccn1Cc1ccccc1`: the GI50 in the test on MCF7 breast is 10.7 µM; in the test with MOLT-4 leukemia, 7.96 µM; in the test on M14 melanoma it was 2.75 µM; in the test on DU-145 prostate it was 17.7 µM; with NCI-H23 lung, 4.97 µM; with CAKI-1 renal, 11.2 µM. Also, the GI50 with ACHN renal was 14.3 µM; in the test with EKVX NSCLC, 11.6 µM; in the test with RXF 393 renal it was 2.03 µM; in the test with RPMI-8226 leukemia, 3.9 µM. For the same compound, the TGI in the test with MCF7 breast is 39 µM; in the test on MOLT-4 leukemia it was more than 100 µM; with M14 melanoma, 6.68 µM; in the test on DU-145 prostate, 32.4 µM; in the test on NCI-H23 lung it was 30.7 µM; in the test with CAKI-1 renal it was 25.9 µM. Besides, the TGI with ACHN renal was 28.6 µM; in the test with EKVX NSCLC, 38.8 µM; in the test on RXF 393 renal, 5.8 µM; in the test with RPMI-8226 leukemia, more than 100 µM.

As for `COc1cc2c(cc1O)C1Cc3ccc(OC)c(O)c3C(C2)N1C` (centres undefined), the TGI in the test on MCF7 breast, in the test with MOLT-4 leukemia, in the test with M14 melanoma, in the test with DU-145 prostate, in the test with NCI-H23 lung and with CAKI-1 renal was more than 100 µM in each case. The TGI with ACHN renal, in the test on EKVX NSCLC, in the test on RXF 393 renal and in the test on RPMI-8226 leukemia was more than 100 µM throughout.

Turning to `CC(C)N=c1cc2n(-c3ccc(Cl)cc3)c3ccccc3nc-2cc1Nc1ccc(Cl)cc1`, the GI50 in the test on MCF7 breast is 1.28 µM and 2.36 µM; in the test with MOLT-4 leukemia it was 2.56 µM; in the test with M14 melanoma, 1.01 µM and 2.29 µM; in the test with DU-145 prostate, 3.14 µM and 3.41 µM; in the test with CAKI-1 renal, 1.73 µM; in the test with ACHN renal, 1.18 µM and 2.18 µM. The values for the GI50 in the test with EKVX NSCLC, with RXF 393 renal and in the test on RPMI-8226 leukemia were 1.4 µM, 0.921 µM and 0.821 µM, respectively. In addition, the TGI in the test on MCF7 breast is more than 100 µM; in the test on MOLT-4 leukemia, more than 100 µM; in the test on M14 melanoma, 2.31 µM and 5.62 µM; in the test on DU-145 prostate it was more than 100 µM; in the test on CAKI-1 renal it was more than 20.9 µM; in the test with ACHN renal, more than 100 µM. Besides, the values for the TGI in the test with EKVX NSCLC, with RXF 393 renal and with RPMI-8226 leukemia were more than 100 µM, 4.72 µM and 2.62 µM, respectively.

For `COc1ccc2c(O)cc3c(c2c1)[C@H](CCl)CN3C(=O)c1cc2cc(NC(=O)CCN3CCOCC3)ccc2[se]1`, the GI50 in the test on MCF7 breast, in the test on MOLT-4 leukemia, with DU-145 prostate, in the test on NCI-H23 lung, with CAKI-1 renal and in the test on ACHN renal was less than 0.001 µM each time. For the same compound, the GI50 with EKVX NSCLC was less than 0.001 µM; with RXF 393 renal, less than 0.001 µM; with RPMI-8226 leukemia, 0.00149 µM. Also, the TGI in the test with MCF7 breast was 1.39 µM; in the test with MOLT-4 leukemia, more than 3.34 µM; in the test with DU-145 prostate, 0.137 µM; in the test on NCI-H23 lung, 0.00121 µM; with CAKI-1 renal it was less than 0.001 µM; in the test on ACHN renal it was less than 0.001 µM. Also, the TGI with EKVX NSCLC is 0.00471 µM; in the test with RXF 393 renal, less than 0.001 µM; in the test on RPMI-8226 leukemia it was 0.0263 µM.
